Drawing on ChEMBL document CHEMBL5233268, “Application of marine natural products in drug research” (Bioorg Med Chem, 2021), this text covers IC50 for three compounds.

Molecules are shown by their SMILES. Values after ≈ are worked out from the molar mass of the structure shown.

One test deals with KB. As to the kind of experiment: Cytotoxicity against human KB cells assessed as inhibition of cell growth. It counts as functional, cell-based.
The next test concerns the target 5'-nucleotidase (Homo sapiens, UniProt P21589). As to the kind of experiment: Inhibition of human N-terminal Ecto-5'-nucleotidase.

Sequence of 5'-nucleotidase (P21589 whole entry): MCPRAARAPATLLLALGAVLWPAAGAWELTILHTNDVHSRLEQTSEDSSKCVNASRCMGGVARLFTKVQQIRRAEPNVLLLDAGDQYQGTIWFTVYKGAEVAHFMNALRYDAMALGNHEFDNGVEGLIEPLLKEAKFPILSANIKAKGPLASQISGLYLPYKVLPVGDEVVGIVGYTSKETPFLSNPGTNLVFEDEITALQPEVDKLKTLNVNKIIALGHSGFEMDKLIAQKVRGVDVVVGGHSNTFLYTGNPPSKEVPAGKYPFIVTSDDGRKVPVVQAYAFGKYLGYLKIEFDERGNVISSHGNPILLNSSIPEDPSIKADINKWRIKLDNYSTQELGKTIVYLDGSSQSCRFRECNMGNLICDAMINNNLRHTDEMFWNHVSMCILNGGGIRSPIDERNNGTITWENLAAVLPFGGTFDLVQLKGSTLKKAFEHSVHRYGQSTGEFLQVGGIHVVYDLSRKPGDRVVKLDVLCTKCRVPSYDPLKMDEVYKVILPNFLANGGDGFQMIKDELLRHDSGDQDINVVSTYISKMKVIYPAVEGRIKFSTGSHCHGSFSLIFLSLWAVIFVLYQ

The IC50 is the concentration that gives 50% inhibition. In the case of `COc1ccc(C[C@H]2NC(=O)/C=C/C[C@@H]([C@H](C)[C@H]3O[C@@H]3c3ccccc3)OC(=O)[C@H](CC(C)C)OC(=O)CCNC2=O)cc1` [ARENASTATIN A], the IC50 in the test with KB is 0.005 ng/mL (≈ 0.00824 nM). `Nc1ncc(/C=C/CNC(=O)c2ccc[nH]2)[nH]1` [CLATHRODIN] gave a concentration for half-maximal inhibition (IC50) against 5'-nucleotidase of 1600 nM. `Nc1ncc(/C=C/CNC(=O)c2cc(Br)c(Br)[nH]2)[nH]1` [OROIDIN]: on 5'-nucleotidase, the IC50 is 1600 nM.
